Results on 19 compounds are retold here after US20100317850A1 (priority 2008, published 2010).

The subject of this test is Aβ42 production. In words: Quantification of Aβ peptide in culture of neurons from rat fetus brain (Aβ ELISA). Format: cell-based. As to conditions: Neuron, 72 h; rat primary neuronal culture (cerebral cortex, embryonic day 18 Wistar rats); medium collected three days after addition of the compound; Aβx-42 ELISA; read-out: Aβ42 production reducing effect IC50. In a few lines: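 Primary cortical neurons from embryonic day 18 Wistar rats were cultured 4 days, then exposed to compound in Neurobasal/B27 without 2-ME, final DMSO ≤1%. After three days, medium was collected and Aβx-42 measured undiluted by sandwich ELISA.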
Background: In an ELISA, binding on a coated surface is turned into a signal by an enzyme label.

As usually defined, the IC50 is the concentration at which inhibition is half-maximal. Consider `NC1=N[C@@]2(c3cc(NC(=O)c4ccc(C(F)F)cn4)ccc3F)COC[C@H]2CS1` (single isomer, unassigned) [Example 190, N-[3-((4aS*,7aS*)-2-amino-4a,5-dihydro-4H-furo[3,4-d][1,3]thiazin-7a-yl)-4-fluorophenyl]-5-difluoromethylpyridine-2-carboxamide], for which the IC50 came out at 12 nM.

As for `NC1=N[C@@]2(c3cc(NC(=O)c4cnc(C(F)F)cn4)ccc3F)CCC[C@H]2CS1` (single isomer, unassigned) [Example 191, N-[3-((4aR*,7aS*)-2-amino-4a,5,6,7-tetrahydro-4H-cyclopenta[d][1,3]thiazin-7a-yl)-4-fluorophenyl]-5-difluoromethylpyrazine-2-carboxamide], the half-maximal inhibitory concentration (IC50) stood at 9 nM.

For `NC1=N[C@@]2(c3cc(NC(=O)c4ccc(Br)cn4)ccc3F)CCCCC[C@H]2CS1` (single isomer, unassigned) [Example 249, N-[3-((4aR*,9aS*)-2-amino-4a,5,6,7,8,9-hexahydro-4H-cyclohepta[d][1,3]thiazin-9a-yl)-4-fluroophenyl]-5-bromopyridine-2-carboxamide], the IC50 is 18 nM.

As for `NC1=N[C@@]2(c3cc(NC(=O)c4ccc(C(F)(F)F)cn4)ccc3F)CCCCC[C@H]2CS1` (single isomer, unassigned) [Example 250, N-[3-((4aR*,9aS*)-2-amino-4a,5,6,7,8,9-hexahydro-4H-cyclohepta[d][1,3]thiazin-9a-yl)-4-fluorophenyl]-5-trifluoromethylpyridine-2-carboxamide], the IC50 was determined as 27 nM.

On to `NC1=N[C@@]2(c3cc(NC(=O)c4ccc(F)cn4)ccc3F)CCCC[C@H]2CS1` (single isomer, unassigned) [Example 256, N-[3-((4aR*,8aS*)-2-amino-4,4a,5,6,7,8-hexahydrobenzo[d][1,3]thiazin-8a-yl)-4-fluorophenyl]-5-fluoropyridine-2-carboxamide], for which the half-maximal inhibitory concentration (IC50) stood at 38 nM.

Consider `NC1=N[C@@]2(c3cc(NC(=O)c4ncc(Cl)cc4Cl)ccc3F)CCCC[C@H]2CS1` (single isomer, unassigned) [Example 257, N-[3-((4aR*,8aS*)-2-amino-4,4a,5,6,7,8-hexahydrobenzo[d][1,3]thiazin-8a-yl)-4-fluorophenyl]-3,5-dichloropyridine-2-carboxamide], for which the IC50 worked out at 17 nM.

Take `COC[C@H]1C[C@]2(c3cc(NC(=O)c4cnc(OCF)cn4)ccc3F)N=C(N)SC[C@@H]2CO1` [Example 38, N-[3-((4aS,7R,8aS)-2-amino-7-methoxymethyl-4a,5,7,8-tetrahydro-4H-6-oxa-3-thia-1-azanaphthalen-8a-yl)-4-fluorophenyl]-5-fluoromethoxypyrazine-2-carboxamide]: the 50% inhibitory concentration (IC50) stood at 6 nM.

In the case of `COC[C@H]1C[C@]2(c3cc(NC(=O)c4ccc(C#N)cn4)ccc3F)N=C(N)SC[C@@H]2CO1` [Example 39, N-[3-((4aS,7R,8aS)-2-amino-7-methoxymethyl-4a,5,7,8-tetrahydro-4H-6-oxa-3-thia-1-azanaphthalen-8a-yl)-4-fluorophenyl]-5-cyanopyridine-2-carboxamide], the IC50 came to 7 nM.

With `COC[C@H]1C[C@]2(c3cc(NC(=O)c4cnc(C(F)F)cn4)ccc3F)N=C(N)SC[C@@H]2CO1` [Example 40, N-[3-((4aS,7R,8aS)-2-amino-7-methoxymethyl-4a,5,7,8-tetrahydro-4H-6-oxa-3-thia-1-azanaphthalen-8a-yl)-4-fluorophenyl]-5-difluoromethylpyrazine-2-carboxamide], the 50% inhibitory concentration (IC50) stood at 26 nM.

`NC1=N[C@@]2(c3cc(NC(=O)c4cnc(OCF)cn4)ccc3F)C[C@H](CF)OC[C@H]2CS1` [Example 41, N-[3-((4aS,7R,8aS)-2-amino-7-fluoromethyl-4a,5,7,8-tetrahydro-4H-6-oxa-3-thia-1-azanaphthalen-8a-yl)-4-fluorophenyl]-5-fluoromethoxypyrazine-2-carboxamide]: the IC50 was found to be 6 nM.

Regarding `N#Cc1ccc(C(=O)Nc2ccc(F)c([C@]34C[C@H](CF)OC[C@H]3CSC(N)=N4)c2)nc1` [Example 42, N-[3-((4aS,7R,8aS)-2-amino-7-fluoromethyl-4a,5,7,8-tetrahydro-4H-6-oxa-3-thia-1-azanaphthalen-8a-yl)-4-fluorophenyl]-5-cyanopyridine-2-carboxamide], the half-maximal inhibitory concentration (IC50) is 4 nM.

For the compound `NC1=N[C@@]2(c3cc(NC(=O)c4cnc(C(F)F)cn4)ccc3F)C[C@H](CF)OC[C@H]2CS1` [Example 43, N-[3-((4aS,7R,8aS)-2-amino-7-fluoromethyl-4a,5,7,8-tetrahydro-4H-6-oxa-3-thia-1-azanaphthalen-8a-yl)-4-fluorophenyl]-5-difluoromethylpyrazine-2-carboxamide], the IC50 is 19 nM.

Take `NC1=N[C@@]2(c3cccc(-c4cccnc4F)c3)CN(C(=O)CC3CC3)C[C@H]2CS1` [Example 48]: the IC50 came to 575 nM.

`COC[C@H]1OC[C@]2(c3cc(NC(=O)c4ccc(C#N)cn4)ccc3F)N=C(N)SC[C@H]12` [Example 66, N-[3-((4aS,5S,7aS)-2-amino-5-methoxymethyl-4a, 5-dihydro-4H-furo[3,4-d][1,3]thiazin-7a-yl)-4-fluorophenyl]-5-cyanopyridine-2-carboxamide]: the IC50 came to 1.3 nM.

Take `COC[C@H]1OC[C@]2(c3cc(NC(=O)c4cnc(OC(F)F)cn4)ccc3F)N=C(N)SC[C@H]12` [Example 67, N-[3-((4aS,5S,7aS)-2-amino-5-methoxymethyl-4a,5-dihydro-4H-furo[3,4-d][1,3]thiazin-7a-yl)-4-fluorophenyl]-5-difluoromethoxy-pyrazine-2-carboxamide]: the IC50 was found to be 1.4 nM.

As to `COC[C@H]1OC[C@]2(c3cc(NC(=O)c4cnc(C(F)F)cn4)ccc3F)N=C(N)SC[C@H]12` [Example 68, N-[3-((4aS,5S,7aS)-2-amino-5-methoxymethyl-4a,5-dihydro-4H-furo[3,4-d][1,3]thiazin-7a-yl)-4-fluorophenyl]-5-difluoromethylpyrazine-2-carboxamide], the IC50 was found to be 6 nM.

In the case of `COC[C@H]1OC[C@]2(c3cc(NC(=O)c4cnc(OCF)cn4)ccc3F)N=C(N)SC[C@H]12` [Example 69, N-[3-((4aS,5S,7aS)-2-amino-5-methoxymethyl-4a,5-dihydro-4H-furo[3,4-d][1,3]thiazin-7a-yl)-4-fluorophenyl]-5-fluoromethoxypyrazine-2-carboxamide], the half-maximal inhibitory concentration (IC50) is 2 nM.

As to `NC1=N[C@@]2(c3cc(NC(=O)c4ccc(C(F)(F)F)cn4)ccc3F)CO[C@H](CF)[C@H]2CS1` [Example 70, N-[3-((4aS,5S,7aS)-2-amino-5-fluoromethyl-4a,5-dihydro-4H-furo[3,4-d][1,3]thiazin-7a-yl)-4-fluorophenyl]-5-trifluoromethylpyridine-2-carboxamide], the IC50 was 2 nM.

Turning to `NC1=N[C@@]2(c3cc(NC(=O)c4ccc(Cl)cn4)ccc3F)CO[C@H](CF)[C@H]2CS1` [Example 71, N-[3-((4aS,5S,7aS)-2-amino-5-fluoromethyl-4a,5-dihydro-4H-furo[3,4-d][1,3]thiazin-7a-yl)-4-fluorophenyl]-5-chloropyridine-2-carboxamide], the IC50 turned out to be 1 nM.
